Laboratory results as given in PubChem BioAssay AID1963447 (Molecular Pharmacology Branch, DTP, NCI, 2024).

Test system: 885512-296-R-J2-PDC complex spheroid growth, % test/control
Assay: Anticancer human tumor 885512-296-R-J2-PDC patient-derived breast carcinoma cell line growth inhibition [Asc]
Conditions: for IC50: curve of first compound; for viability, T/C: stronger effect = lower value; active = viability on the fitted dose curve at most 10% of control; inactive = the rest
Summary of the method: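 Complex solid-tumor spheroids incorporating human endothelial and mesenchymal stem cells received single agents or combinations over half-log dilution ranges anchored to clinical Cmax.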
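Note: spheroids exposed to compounds for seven days.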
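Throughout, for viability, T/C: 100% = DMSO vehicle control wells.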

Cc1nc(N2CCC3(CC2)COC(C)C3N)c(CO)nc1Sc1ccnc(N)c1Cl (stereo not given) + Cc1c(S(C)(=O)=O)c(-c2cc(F)cc(N3CCN(c4ccc(NS(=O)(=O)c5ccc(NC(CCN6CCC(C(=O)OCCCP(=O)(O)O)CC6)CSc6ccccc6)c(S(=O)(=O)C(F)(F)F)c5)cc4)CC3)c2)c(-c2ccc(Cl)cc2)n1C(C)C
275 nM: IC50 (second compound 0.1 µM) | IC50 (second compound 0.316 µM)
172 nM: IC50 (second compound 1 µM)
inactive: viability, T/C (second compound 0.1 µM, first compound 0.00949 µM) 83.7% | viability, T/C (second compound 0.1 µM, first compound 0.03 µM) 67.7% | viability, T/C (second compound 0.1 µM, first compound 0.0949 µM) 58% | viability, T/C (second compound 0.1 µM, first compound 0.3 µM) 50.4% | viability, T/C (second compound 0.1 µM, first compound 0.949 µM) 42.1% | viability, T/C (second compound 0.1 µM, first compound 3 µM) 32.4% | viability, T/C (second compound 0.316 µM, first compound 0.00949 µM) 76.5% | viability, T/C (second compound 0.316 µM, first compound 0.03 µM) 63.7% | viability, T/C (second compound 0.316 µM, first compound 0.0949 µM) 62.7% | viability, T/C (second compound 0.316 µM, first compound 0.3 µM) 46.2% | viability, T/C (second compound 0.316 µM, first compound 0.949 µM) 42.8% | viability, T/C (second compound 0.316 µM, first compound 3 µM) 37% | viability, T/C (second compound 1 µM, first compound 0.00949 µM) 76.7% | viability, T/C (second compound 1 µM, first compound 0.03 µM) 60.2% | viability, T/C (second compound 1 µM, first compound 0.0949 µM) 59.1% | viability, T/C (second compound 1 µM, first compound 0.3 µM) 41.8% | viability, T/C (second compound 1 µM, first compound 0.949 µM) 42.6% | viability, T/C (second compound 1 µM, first compound 3 µM) 34.7% | viability, T/C (second compound 3.16 µM, first compound 0.00949 µM) 94.5% | viability, T/C (second compound 3.16 µM, first compound 0.03 µM) 67.4% | viability, T/C (second compound 3.16 µM, first compound 0.0949 µM) 56.8% | viability, T/C (second compound 3.16 µM, first compound 0.3 µM) 45.4% | viability, T/C (second compound 3.16 µM, first compound 0.949 µM) 39.5% | viability, T/C (second compound 3.16 µM, first compound 3 µM) 33.4% | viability, T/C (second compound 10 µM, first compound 0.00949 µM) 117% | viability, T/C (second compound 10 µM, first compound 0.03 µM) 110% | viability, T/C (second compound 10 µM, first compound 0.0949 µM) 96.2% | viability, T/C (second compound 10 µM, first compound 0.3 µM) 113% | viability, T/C (second compound 10 µM, first compound 0.949 µM) 95.9% | viability, T/C (second compound 10 µM, first compound 3 µM) 85.9%
> 3000 nM: IC50 (second compound 10 µM)
167 nM: IC50 (second compound 3.16 µM)
